ChEMBL document CHEMBL1122472, “Anticoccidial activity of 1-phenyluracils” (1983)

These compounds were tested on Eimeria tenella (assay: Minimum effective concentration (MEC) against Eimeria tenella to prevent infection and to maintain zero lesion scores). Conditions: read-out: MEC.
Assay type: functional

SMILES | minimal effective concentration
Cc1cc(-n2ccc(=O)[nH]c2=O)cc(Cl)c1Sc1ccc(Cl)cc1 | 60 µg/mL
Cc1cc(-n2ccc(=O)[nH]c2=O)cc(Cl)c1S(=O)(=O)c1ccc(Cl)cc1 | < 125 µg/mL
Cc1cc(C)cc(-n2ccc(=O)[nH]c2=O)c1 | > 250 µg/mL
O=c1ccn(-c2cc(Cl)cc(Cl)c2)c(=O)[nH]1 | 125 µg/mL
Cc1cc(-n2ccc(=O)[nH]c2=O)cc(C)c1Sc1ccc(Cl)cc1 | 500 µg/mL
O=c1ccn(-c2ccc(Oc3ccc(Cl)cc3)c(Cl)c2)c(=O)[nH]1 | > 500 µg/mL
